The test system of data set [1] is SARS-CoV-2 S1.
Data set [2] relates to SARS-CoV-2 S1. This is another data set of the same source.
The next data set addresses T1, proteinaseK (Parengyodontium album, UniProt P06873).
T1 construct: purchased Bioshop
Briefly: Peptide remaining degree after ProtK treatment (Coomassie staining). The following applies: 5 ug/ml proteinaseK, 37° C., 10, 30 and 60 minutes, FIG. 7. The class given is in vitro ADME.

T1 sequence (P06873 106-384, species assumed): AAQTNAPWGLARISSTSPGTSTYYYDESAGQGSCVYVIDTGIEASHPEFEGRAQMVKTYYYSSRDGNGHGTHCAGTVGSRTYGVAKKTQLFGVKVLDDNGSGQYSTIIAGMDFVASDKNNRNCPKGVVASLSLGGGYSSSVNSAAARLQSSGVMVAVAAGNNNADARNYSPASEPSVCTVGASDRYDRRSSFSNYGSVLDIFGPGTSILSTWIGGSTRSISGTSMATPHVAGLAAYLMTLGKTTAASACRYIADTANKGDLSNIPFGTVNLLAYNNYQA
Experimental for proteinaseK: 200 μL of 50 μM stock solution was prepared with a base buffer (10 mM Tris-base, 10 mM NaCl, pH 7.4) and supplemented with 5 μM CaCl2. For untreated TO samples, 30 μL were obtained from each sample. Thereafter, 5 ug/ml of proteinaseK (Bioshop) was added to a final concentration of the remaining stock. […] Protease inactivated samples were frozen at −20° C. before further use. The frozen sample was supplemented with 8 μL of sample loading buffer (4×NuPAGE; ThermoFisher Scientific), boiled for 10 minutes (50° C.), and centrifuged at 13,500 RPM for 10 minutes before mounting a gel [12% NuPAGE Bis-Tris (ThermoFisher Scientific)] with 1×Mes running buffer. The gel was treated at 200 V for 35 minutes and stained with Coomassie Brilliant Blue dye G-250 (Thermo Fisher Scientific). ImageJ software having a background subtractive function was used as a density meter. All samples were normalized to untreated samples (TO).

As for `CC[C@H](C)[C@H](N)C(=O)N[C@@H](CCC(=O)O)C(=O)N[C@@H](CCC(=O)O)C(=O)N[C@@H](CCC(N)=O)C(=O)N[C@@H](C)C(=O)N[C@@H](CCCCN)C(=O)N[C@H](C(=O)N[C@@H](Cc1ccccc1)C(=O)N[C@@H](CC(C)C)C(=O)N[C@@H](CC(=O)O)C(=O)N[C@@H](CCCCN)C(=O)N[C@@H](Cc1ccccc1)C(=O)N[C@@H](CC(N)=O)C(=O)N[C@@H](Cc1c[nH]cn1)C(=O)N[C@@H](CCC(=O)O)C(=O)N[C@@H](C)C(=O)N[C@@H](CCC(=O)O)C(=O)N[C@@H](CC(=O)O)C(=O)N[C@@H](CC(C)C)C(=O)N[C@@H](Cc1ccccc1)C(=O)N[C@@H](Cc1ccc(O)cc1)C(=O)N[C@@H](CCC(N)=O)C(=O)N[C@@H](CO)C(=O)N[C@@H](CO)C(=O)N[C@@H](CC(C)C)C(=O)N[C@@H](C)C(=O)N[C@@H](CO)C(=O)NCC(=O)N1CCC[C@H]1C(=O)NCC(=O)N[C@H]1CSSC[C@@H](C(=O)N[C@@H](CCCNC(=N)N)C(=O)N[C@H](C(=O)N[C@@H](CC(C)C)C(=O)O)[C@@H](C)CC)NC(=O)[C@H](CC(=O)O)NC(=O)CNC(=O)[C@H](CCCCN)NC(=O)CNC(=O)[C@H](CC(C)C)NC1=O)[C@@H](C)O` [CSNP1], in the data set on SARS-CoV-2 S1 [1], the “kd” value was 0.0001878 s⁻¹. Further, in the data set on SARS-CoV-2 S1 [2], the “ka” value turned out to be 603.4 M⁻¹ s⁻¹. In addition, the “peptide remaining degree after proteinase K treatment” value at proteinaseK is “barely remained”.
